Source: patent EP2945948B1, “CRYSTALLINE FORM II OF ANAGRELIDE HYDROCHLORIDE MONOHYDRATE” (Synthon BV, priority 2013, dated 2014)
“Also recorded” adds a separate entry of the source. Where a name gives a salt, the structure may show the parent alone.

Experiments:
[1] = Stability of form II: suspension stirred in solvent, solid analysed by XRPD; assay type: physicochemical
Description: 2.0 g of anagrelide hydrochloride monohydrate form II was suspended in 20 ml solvent. […] At certain time points, a small amount of the suspension was filtered over a P3-glass filter (reduced pressure). The solids were air-dried overnight at RT.
(§1) In the above examples, the XRPD patterns were recorded on a Bruker-AXS D8 vario (Θ/2Θ geometry, reflection mode, Vantec PSD detector) operating at the following settings: […]

[2] = cited from earlier work
[3] = Conversion study in ethanol at specified stirring temperature, XRPD; assay type: physicochemical; settings: for Crystal form (XRPD): ethanol, stirring time 2 hours only
Description: The suspension was filtered over a P3-glass filter (reduced pressure), washed with solvent and dried.
as §1

[4] = Stability of form I: suspension stirred in solvent, solid analysed by XRPD; assay type: physicochemical; settings: RT
Description: […] The suspension was filtered over a P3-glass filter (reduced pressure), washed with solvent and dried.
as §1

[5] = Instant solubility in buffers, Milli-Q water and 0.1 M HCl (HPLC-UV); assay type: physicochemical; settings: USP acetate buffer pH 4.5, USP phosphate buffer pH 6.8, Milli-Q water and 0.1 M HCl; room temperature; 0-60 minutes; Figure 5; hydrochloride monohydrate
Description: The instant solubility of anagrelide hydrochloride monohydrate form II, form I and free base was determined in USP acetate buffer pH 4.5, USP phosphate buffer pH 6.8, Milli-Q water (herein below "MQ") and 0.1 M HCl. About 30 mg of the drug substance was transferred into a clear 50 ml sample jar and a stirring bar was added. Subsequently 30 ml of test medium was added; the vial was closed and placed on a magnetic stirrer. Under constant stirring at room temperature samples of 2 ml were taken at t=0, 10, 20, 30, 40, 50, and 60 minutes. The samples were immediately filtered through a 0.45 µm syringe disk filter (first ml was discarded) and analyzed at once with the HPLC-UV method described in Table 1. The solubility was calculated in mg/ml anagrelide free base against an external standard (AGL.hcl.mhy.120310) dissolved in acetonitrile/milli-Q (ACN/MQ) (50:50). Table 1 HPLC-UV parameters used for instant solubility testing

[6] = Polymorphic stability on exposure to air / air-drying; assay type: physicochemical

Compound: O=C1CN2Cc3c(ccc(Cl)c3Cl)N=C2N1 [Anagrelide hydrochloride monohydrate]
- converts into anagrelide free base ([1]; in water): 30 to 180 min
- solubility in water [2]: very slightly soluble

Compound: Cl.O.O=C1CN2Cc3c(ccc(Cl)c3Cl)N=C2N1 [anagrelide hydrochloride monohydrate]
- Crystal form (XRPD) ([3]; stirring temperature 72.5 °C): I + II
- Crystal form (XRPD) ([3]; stirring temperature 75 °C): mostly I, some II left

Compound: O=C1CN2Cc3c(ccc(Cl)c3Cl)N=C2N1 [form I, anagrelide hydrochloride monohydrate]
- XRPD ([4]; 2-propanol, 16 hours): Form I + II
- XRPD ([4]; Acetone, 2 days): Form II
- XRPD ([4]; Demi-water, 30 min): Anagrelide base
- XRPD ([4]; Demi-water, 180 min): Anagrelide base
- XRPD ([4]; Ethanol, 30 min): Form II
- XRPD ([4]; Ethanol, 16 hours): Form II
- XRPD ([4]; Ethyl acetate, 2 days): Form II

Compound: O=C1CN2Cc3c(ccc(Cl)c3Cl)N=C2N1 [form II, anagrelide hydrochloride monohydrate]
- transition point ([3]; form II / form I, suspension in ethanol): around 72.5 °C
- stable at temperatures ([3]; suspension in ethanol): below 70 °C
- instant solubility compared to form I [5]: more soluble; also recorded: higher
- polymorphic change on air-drying ([6]; air-drying at ambient temperature): does not cause any polymorphic change
- XRPD ([1]; 2-propanol, 30 min, RT): Form II
- XRPD ([1]; 2-propanol, 60 min, RT): Form II
- XRPD ([1]; 2-propanol, 120 min, RT): Form II
- XRPD ([1]; 2-propanol, overnight, RT): Form II
- XRPD ([1]; Demi-water, 30 min, RT): Form II + anagrelide base
- XRPD ([1]; Demi-water, 60 min, RT): Form II + anagrelide base
- XRPD ([1]; Demi-water, 120 min, RT): Form II + anagrelide base
- XRPD ([1]; Demi-water, 180 min, RT): Anagrelide base
- XRPD ([1]; Ethanol, 30 min, RT): Form II
- XRPD ([1]; Ethanol, 60 min, RT): Form II
- XRPD ([1]; Ethanol, 120 min, RT): Form II
- XRPD ([1]; Ethanol, 3 hours, reflux): Form I
- XRPD ([1]; Ethanol, overnight, RT): Form II
- polymorphic stability ([1]; ambient temperature, ethanol, 2-propanol, acetone, ethyl acetate, compared with form I): polymorphically stable at ambient temperature and even more stable than form I
- stability against aqueous hydrolysis ([1]; stirred in demi-water for up to 180 minutes, compared with form I): more stable against aqueous hydrolysis than form I

Compound: O=C1CN2Cc3c(ccc(Cl)c3Cl)N=C2N1 [form III, anagrelide hydrochloride monohydrate]
- stability when exposed to air ([6]; exposed to air): converts into form I or a mixture of forms I and II
